The test system of experiment [1] is Botryotinia fuckeliana syn. Botrytis cinerea. In words: Botryotinia fuckeliana syn. Botrytis cinerea (gray mould), liquid culture growth inhibition. It counts as cell-based. The settings on record: PDB nutrient broth, 24° C., 72 hrs, photometric, vs untreated control. Here is the method:
Conidia of the fungus from cryogenic storage were directly mixed into nutrient broth (PDB potato dextrose broth). A DMSO solution of the test compounds was placed into a microtiter plate (96-well format) and the nutrient broth containing the fungal spores was added to it. The test plates were incubated at 24° C. and the inhibition of growth was determined photometrically after 72 hrs.

Experiment [2] concerns Pyrenophora teres. In words: Pyrenophora teres (net blotch of barley), barley leaf segments, preventive. It counts as in vivo. The settings on record: foliar, 96 h, assessed 4 dpi, vs untreated control. Here is the method:
Barley leaf segments are placed on agar in multiwell plates (24-well format) and sprayed with test solutions. After drying, the leaf disks are inoculated with a spore suspension of the fungus. After appropriate incubation, the activity of a compound is assessed 4 dpi (days after inoculation) as preventive fungicidal activity.

For experiment [3], the system named is Alternaria solani. In words: Alternaria solani (early blight of tomato), tomato leaf disks, preventive. The settings on record: foliar, 96 h, assessed 4 dpi, vs untreated control. It counts as in vivo. Here is the method:
Tomato leaf disks are placed on water agar in multiwell plates (24-well format) and sprayed with test solutions. After drying, the leaf disks are inoculated with a spore suspension of the fungus. After appropriate incubation the activity of a compound is assessed 4 dpi (days post inoculation) as preventive fungicidal activity.

The test system of experiment [4] is Sclerotinia sclerotiorum. As to the kind of experiment: Sclerotinia sclerotiorum (cottony rot, white mold), liquid culture growth inhibition. It counts as cell-based. The settings on record: PDB nutrient broth, 24° C., 72 hrs, 620 nm, vs untreated control. Here is the method: Mycelial fragments of the fungus prepared from a fresh liquid culture were directly mixed into nutrient broth (PDB potato dextrose broth). A DMSO solution of the test compounds was placed into a microtiter plate (96-well format) and the nutrient broth containing the fungal spores was added to it. The test plates were incubated at 24° C. and the inhibition of growth was determined photometrically after 72 hrs at 620 nm.

The test system of experiment [5] is Monographella nivalis syn. Microdochium nivale, Fusarium nivale. As to the kind of experiment: Monographella nivalis syn. Microdochium nivale (snow mould, foot rot), liquid culture growth inhibition. It counts as cell-based. To be noted: PDB nutrient broth, 24° C., 72 hrs, 620 nm, vs untreated control. How it is done:
(§1) Conidia of the fungus from cryogenic storage were directly mixed into nutrient broth (PDB potato dextrose broth). A DMSO solution of the test compounds was placed into a microtiter plate (96-well format) and the nutrient broth containing the fungal spores was added to it. The test plates were incubated at 24° C. and the inhibition of growth was determined photometrically after 72 hrs at 620 nm.

Experiment [6] relates to Glomerella lagenarium syn Colletotrichum lagenarium. In words: Glomerella lagenarium syn. Colletotrichum lagenarium (anthracnose), liquid culture growth inhibition. It counts as cell-based. To be noted: Colletotrichum orbiculare, PDB nutrient broth, 24° C., 72 hrs, 620 nm, vs untreated control. Here is the method: as §1
The test system of experiment [7] is Botryotinia fuckeliana syn. Botrytis cinerea. As to the kind of experiment: Botryotinia fuckeliana syn. Botrytis cinerea (grey mold on tomato), tomato plants. It counts as in vivo. The settings on record: tomato plants cv. Roter Gnom, inoculated two days after application, leaf area covered by disease 5-6 days after application. Here is the method:
4-week old tomato plants cv. Roter Gnom are treated sprayed in a spray chamber with the formulated test compound diluted in water. The test plants are inoculated by spraying them with a spore suspension two days after application. The inoculated test plants are incubated at 20° C. and 95% rh in a greenhouse and the percentage leaf area covered by disease is assessed when an appropriate level of disease appears on untreated check plants (5-6 days after application).

In experiment [8] the test system is Phaeosphaeria nodorum syn. Septoria nodorum. In words: Phaeosphaeria nodorum syn. Septoria nodorum (glume blotch of wheat), wheat leaf segments, preventive. It counts as in vivo. To be noted: Parastagonospora nodorum, foliar, 96 h, assessed 4 dpi, vs untreated control. How it is done:
Wheat leaf segments are placed on agar in multiwell plates (24-well format) and sprayed with test solutions. After drying, the leaf disks are inoculated with a spore suspension of the fungus. After appropriate incubation the activity of a compound is assessed 4 dpi (days after inoculation) as preventive fungicidal activity.
The following compounds from Table T1 gave at least 80% control of Phaeosphaeria nodorum at 200 ppm when compared to untreated control under the same conditions, which sowed extensive disease development: • 1.1, 1.3, 1.7, 1.14, 1.39, 1.41, 1.86, 1.87, 1.92, 1.94, 1.95.

This note sets out measurements from patent publication US20240182420A1, “MICROBIOCIDAL ISONICOTINIC AMIDE DERIVATIVES” (SYNGENTA CROP PROTECTION AG, priority 2021, published 2024).

As a reminder, the inhibition of growth is the share of the control response that was lost under treatment. Usually pest or weed control stands for the degree to which the test organism was suppressed or injured, in per cent. High values mean a strong effect, low ones a weak effect.

As to `Cc1cccc(Oc2cnc(C)cc2C(=O)NCC(F)c2ccc(Cl)cc2Cl)c1` (stereo not shown) [Compound 1.1, N-[2-(2,4-dichlorophenyl)-2-fluoro-ethyl]-2-methyl-5-(3-methylphenoxy)pyridine-4-carboxamide], the inhibition of growth at 20 ppm in experiment [1], in experiment [4], in experiment [5] and in experiment [6] was no less than 80% each time. For the same compound, the pest or weed control at 200 ppm was no less than 80% in experiment [2], no less than 80% in experiment [3], no less than 50% in experiment [7] and no less than 80% in experiment [8].
Consider `Cc1cccc(Oc2cnc(Cl)cc2C(=O)NCC(F)c2ccc(Cl)cc2Cl)c1` (stereo not shown) [Compound 1.3, 2-chloro-N-[2-(2,4-dichlorophenyl)-2-fluoro-ethyl]-5-(3-methylphenoxy) pyridine-4-carboxamide], for which the inhibition of growth at 20 ppm in experiment [1], in experiment [4] and in experiment [6] was no less than 80% in each case. Further, the pest or weed control at 200 ppm was no less than 80% in experiment [2], no less than 50% in experiment [7] and no less than 80% in experiment [8].
In the case of `Cc1cncc(Oc2cccc(C3CC3)c2)c1C(=O)NCC(F)c1ccc(Cl)cc1Cl` (stereo not shown) [Compound 1.7, 3-(3-cyclopropyl-phenoxy)-N-[2-(2,4-dichlorophenyl)-2-fluoro-ethyl]-5-methyl-pyridine-4-carboxamide], the inhibition of growth at 20 ppm in experiment [1], in experiment [4] and in experiment [6] was no less than 80% each time. Also, the pest or weed control at 200 ppm in experiment [3] was no less than 80%; in experiment [7] it was no less than 50%; in experiment [8], no less than 80%.
In the case of `Cc1cc(C(=O)NCC(F)c2ccc(Cl)cc2Cl)c(Oc2cccc(C3CC3)c2)cn1` (stereo not shown) [Compound 1.14, 5-(3-cyclopropyl-phenoxy)-N-[2-(2,4-dichlorophenyl)-2-fluoro-ethyl]-2-methyl-pyridine-4-carboxamide], the inhibition of growth at 20 ppm in experiment [1], in experiment [4], in experiment [5] and in experiment [6] was no less than 80% in each case. The pest or weed control at 200 ppm in experiment [2] is no less than 80%; in experiment [3], no less than 80%; in experiment [7], no less than 50%; in experiment [8], no less than 80%.
As to `N#Cc1cc(C(=O)NCC(F)c2ccc(Cl)cc2Cl)c(Oc2cccc(C3CC3)c2)cn1` (stereo not shown) [Compound 1.20, 2-cyano-5-(3-cyclopropyl-phenoxy)-N-[2-(2,4-dichlorophenyl) 2-fluoro-ethyl]pyridine-4-carboxamide], the inhibition of growth at 20 ppm in experiment [1], in experiment [4] and in experiment [6] was no less than 80% each time. Moreover, the results for the pest or weed control at 200 ppm in experiment [3] and in experiment [7] were no less than 80% and no less than 50%, respectively.
Consider `Cc1ccc(C(F)CNC(=O)c2cc(C)ncc2Oc2cccc(C3CC3)c2)c(C)c1` (stereo not shown) [Compound 1.39, 5-(3-cyclopropyl-phenoxy)-N-[2-(2,4-dimethylphenyl)-2-fluoro-ethyl]-2-methyl-pyridine-4-carboxamide], for which the inhibition of growth at 20 ppm in experiment [1], in experiment [4], in experiment [5] and in experiment [6] was no less than 80% in each case. Moreover, the pest or weed control at 200 ppm in experiment [2] is no less than 80%; in experiment [3], no less than 80%; in experiment [7], no less than 50%; in experiment [8], no less than 80%.
With `Cc1cc(C(=O)NC[C@@H](F)c2ccc(Cl)cc2Cl)c(Oc2cccc(C3CC3)c2)cn1` [Compound 1.41, 5-(3-cyclopropyl-phenoxy)-N-[(2S)-2-(2,4-dichlorophenyl)-2-fluoro-ethyl]-2-methyl-pyridine-4-carboxamide], the inhibition of growth at 20 ppm in experiment [1], in experiment [4], in experiment [5] and in experiment [6] was no less than 80% throughout. The pest or weed control at 200 ppm in experiment [2] was no less than 80%; in experiment [3], no less than 80%; in experiment [7] it was no less than 50%; in experiment [8] it was no less than 80%.
As to `C=C(C)COc1cncc(Oc2cccc(C3CC3)c2)c1C(=O)NCC(F)c1ccc(Cl)cc1Cl` (stereo not shown) [Compound 1.85, 3-(3-cyclopropyl-phenoxy)-N-[2-(2,4-dichlorophenyl)-2-fluoro-ethyl]-5-(2-methylallyloxy) pyridine-4-carboxamide], the inhibition of growth at 20 ppm in experiment [1], in experiment [4], in experiment [5] and in experiment [6] was no less than 80% each time. For the same compound, the pest or weed control at 200 ppm in experiment [2] was no less than 80%; in experiment [7], no less than 50%.
With `C#CC(C)(C)Oc1cncc(Oc2cccc(C3CC3)c2)c1C(=O)NCCc1ccc(Cl)cc1Cl` [Compound 1.88, 3-(3-cyclopropyl-phenoxy)-N-[2-(2,4-dichlorophenyl)ethyl]-5-(1,1-dimethylprop-2-ynoxy)pyridine-4-carboxamide], the inhibition of growth at 20 ppm in experiment [1], in experiment [4], in experiment [5] and in experiment [6] was no less than 80% in each case. In addition, the pest or weed control at 200 ppm in experiment [2] was no less than 80%; in experiment [7], no less than 50%.
For the compound `C#CC(C)(C)Oc1cncc(Oc2cccc(C3CC3)c2)c1C(=O)NCC(F)c1ccc(Cl)cc1Cl` (stereo not shown) [Compound 1.92, 3-(3-cyclopropyl-phenoxy)-N-[2-(2,4-dichlorophenyl)-2-fluoro-ethyl]-5-(1,1-dimethylprop-2-ynoxy)pyridine-4-carboxamide], the inhibition of growth at 20 ppm in experiment [1], in experiment [4], in experiment [5] and in experiment [6] was no less than 80% each time. The same compound returned a pest or weed control at 200 ppm in experiment [8] of no less than 80%.
`Cc1cncc(Oc2cccc(C3CC3)c2)c1C(=O)NC[C@H](F)c1ccc(Cl)cc1Cl` [Compound 1.94, 3-(3-cyclopropyl-phenoxy)-N-[(2R)-2-(2,4-dichlorophenyl)-2-fluoro-ethyl]-5-methyl-pyridine-4-carboxamide]: the inhibition of growth at 20 ppm in experiment [1], in experiment [4], in experiment [5] and in experiment [6] was no less than 80% each time. Moreover, the pest or weed control at 200 ppm in experiment [2], in experiment [3] and in experiment [8] was no less than 80% throughout.
Take `O=C(NC[C@H](F)c1ccc(Cl)cc1Cl)c1c(Br)cncc1Oc1cccc(C2CC2)c1` [Compound 1.95, 3-bromo-5-(3-cyclopropyl-phenoxy)-N-[(2R)-2-(2,4-dichlorophenyl)-2-fluoro-ethyl]pyridine-4-carboxamide]: the inhibition of growth at 20 ppm in experiment [1], in experiment [4], in experiment [5] and in experiment [6] was no less than 80% throughout. Moreover, the pest or weed control at 200 ppm in experiment [3] and in experiment [8] was no less than 80% each time.
Consider `COc1cc(C(=O)NCC(F)c2ccc(Cl)cc2Cl)c(Oc2cccc(C3CC3)c2)cn1` (stereo not shown) [Compound 1.98, 5-(3-cyclopropyl-phenoxy)-N-[2-(2,4-dichlorophenyl)-2-fluoro-ethyl]-2-methoxy-pyridine-4-carboxamide], for which the inhibition of growth at 20 ppm in experiment [1] and in experiment [6] was no less than 80% each time. For the same compound, in experiment [3], the pest or weed control at 200 ppm is no less than 80%.
